According to US20120128795A1, “COLORLESS, NON-FUMING, HAZARDLESS AND STABLE AQUA-REGIA, ITS PREPARATION METHOD AND USE IN TREATING MEDICAL DISORDERS” (priority 2010, published 2012):

Tests used:
[1] = tested on: castor oil-induced diarrhea in albino rats; assay: Castor oil-induced diarrhea (weight of faeces, rate of defecation); assay type: in vivo, Swiss albino rats; conditions: STD group, 10 mg/kg i.p.
Protocol: (§1) The anti-diarrheal activity of the hazardless and stable aqua-regia in terms of reduction of rate of defecation and consistency of faeces was tested on albino rats. In an embodiment, Swiss albino rats weighing 150-180 g of either sex were selected for the experiment. Animals were allowed to acclimatize for a period of 2 weeks in laboratory environment by housing them in a plurality of polypropylene cages. The polypropylene cages were maintained under standard laboratory conditions at an ambient temperature of 25° C. with 35%-60% humidity. Animals were fed with standard rat pellet diet.
Loperamide (standard reference anti-diarrheal drug), castor oil (laxative agent), and normal saline solution (0.9% NaCl) were used. […]
Animals of all the groups were placed separately in individual cages lined with filter paper. The filter paper was changed every 1 hour and the severity of diarrhea was assessed hourly for two hours. The total weight of faeces excreted were recorded within a period of two hours and compared with that of the control group. […]
(§2) Data were analyzed by one-way ANOVA followed by Dunnett's t-test using computerized Graph Pad InStat version 3.05.

[2] = tested on: intestinal transit of charcoal meal in albino rats; assay: Gastrointestinal motility test (charcoal meal transit); assay type: in vivo, Swiss albino rats; conditions: charcoal meal one hour after dosing, sacrificed thirty minutes later; aqua-regia 0.03 ml, atropine sulphate 0.1 mg/kg; control group 84.46%
Protocol: as §1, with “use” for “anti-diarrheal activity”, “rehydrating body cells” for “terms of reduction of rate of defecation and consistency of faeces”
Atropine sulphate (standard reference anti-diarrheal drug), charcoal meal (10% activated charcoal in 5% gum acacia) and vehicle (2% v/v Tween 80 in distilled water) were used. […]
The gastrointestinal motility test was conducted to illustrate use of aqua-regia in rehydrating body cells, according to an embodiment herein. […] The distance travelled by the charcoal meal was calculated. The distance covered by the charcoal meal in the intestine was expressed as a percentage of the total distance travelled from the pylorus to the caecum of each animal.
as §2

Row | Structure (SMILES) | diarrheal symptoms [1] | percentage transit (distance covered by charcoal meal as percentage of distance from pylorus to caecum) [2] [%]
1 | CN(C)C(=O)C(CCN1CCC(O)(c2ccc(Cl)cc2)CC1)(c1ccccc1)c1ccccc1 [loperamide, Loperamide] | does not possess any diarrheal symptoms | 
2 | CN1[C@@H]2CC[C@H]1CC(OC(=O)C(CO)c1ccccc1)C2.CN1[C@@H]2CC[C@H]1CC(OC(=O)C(CO)c1ccccc1)C2.O=S(=O)(O)O (some centres unmarked) [standard drug, Atropine sulphate] |  | 55.57
